Here are results for five compounds from article PMC3581310 (Bioorganic & medicinal chemistry, 2012).

By EC50 is commonly meant the midpoint of the concentration-response curve.

In experiment [1] the test system is ER. The note with it: triphenyl acrylonitriles; cited from earlier work.
The test system of experiment [2] is human endometrial adenocarcinoma cells (Ishikawa). Nature of the experiment: Estrogen bioassay: induction of AlkP in Ishikawa cells. It counts as cell-based.
Experiment [3] deals with ER. To be noted: cited from earlier work.

Consider `COc1ccc(C(=C(C#N)c2ccc(O)cc2)c2ccc(O)cc2)cc1`, for which, in the experiment with ER [1], the efficacy entry is given as “‘partial’ agonist responses”.

As for `N#CC(=C(c1ccc(O)cc1)c1ccc(O)cc1)c1ccc(O)cc1` [α,α′,β-tris(4-hydroxyphenyl) compound], in the experiment on ER [1], the efficacy result is “full agonist”.

Regarding `COc1ccc([C@H]2C[C@]3(C)[C@@H](O)CC[C@H]3[C@@H]3CCc4cc(O)ccc4[C@H]32)cc1` [Compound 5, 11β-(4-Methoxyphenyl)estra-1,3,5(10)-trien-3,17β-diol], the Max stim entry in experiment [2] (maximal stimulation of AlkP in Ishikawa cells, printed in the RSA column) is given as “Max stim = 35–45%”.

For the compound `C[C@]12CC[C@@H]3c4ccc(O)cc4CC[C@H]3[C@@H]1CC[C@@H]2O` [Compound E2, estradiol], the EC50 in experiment [2] (Homo sapiens, Ishikawa, read-out: EC50 of E2) is about 0.2 nM.

On to `CC/C(=C(\c1ccccc1)c1ccc(OCCN(C)C)cc1)c1ccccc1` [tamoxifen], for which, in the experiment with ER [3], the “affinity (RBA)” value is listed as ~ 1%.
